These results are taken from PubChem BioAssay (NCI).

Common to all, as to assay: growth of human tumour cells (NCI), 48 h
The subject of assay [1] is SF-295 CNS.
In assay [2] the test system is M14 melanoma.
Assay [3] deals with IGROV1 ovarian.
In assay [4] the test system is OVCAR-8 ovarian.
The test system of assay [5] is CCRF-CEM leukemia.
Assay [6] relates to MCF7 breast.
Assay [7] concerns HL-60(TB) leukemia.
The test system of assay [8] is MDA-N.
In assay [9] the test system is MDA-MB-435.
In assay [10] the test system is A549 NSCLC.
For assay [11], the system named is SK-OV-3 ovarian.
Assay [12] concerns OVCAR-4 ovarian.
In assay [13] the test system is NCI-H460 lung.
Assay [14] has as its system NCI-H23 lung.
In assay [15] the test system is MOLT-4 leukemia.
The subject of assay [16] is MDA-MB-231 breast.
Assay [17] concerns HCT-15 colon.
In assay [18] the test system is HCC-2998 colon.
The subject of assay [19] is SR leukemia.

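Cells were grown in 96-well plates and exposed to each compound for 48 hours at five concentrations; endpoints were interpolated linearly between bracketing concentrations, or set to the highest concentration if not reached. TGI: concentration producing complete growth inhibition.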 Where only a bound is given, the exact number is not on record here.

On to `CC1(C)N=C(N)N=C(N)N1c1cccc(C(=O)Nc2ccc(S(=O)(=O)F)cc2)c1`, for which the TGI in assay [1], in assay [2], in assay [3], in [4], in assay [5] and in [6] was greater than 100 µM each time. Further, the TGI in assay [7], in [8], in assay [9], in assay [10], in assay [11] and in assay [12] was greater than 100 µM in each case. The TGI in assay [13], in assay [14], in assay [15], in [16] and in [17] was greater than 100 µM throughout.

`CC(NC(=O)c1ccc(NP(=O)(OCc2ccc([N+](=O)[O-])o2)N(C)CCCCCl)cc1)c1ccc(OCC2CCCCC2)c(C(N)=O)c1` (centres undefined): the TGI in [1] was 36.4 µM; in assay [18], 24.2 µM; in assay [3], 45.9 µM; in [4], greater than 100 µM; in [5], 16.5 µM; in assay [6], 18.3 µM. Besides, the TGI in assay [7] came out at 50 µM; in [8] it was 62.4 µM; in assay [9], 33.6 µM; in [10], 33.2 µM; in assay [11], 78.3 µM; in assay [19], 40.7 µM. Also, the TGI in assay [12] was 49.6 µM; in assay [13], 72.3 µM; in assay [14], 34.8 µM; in assay [15], 68.8 µM; in assay [16], 35 µM; in [17] it was greater than 100 µM.

As for `CC(=O)n1cc(OP(=O)(Oc2ccccc2)Oc2ccccc2)c2ccccc21`, the TGI is 57.3 µM in [1]; 52.1 µM in assay [2]; greater than 100 µM in assay [3]; greater than 100 µM in assay [4]; 50.4 µM in assay [5]; 31.5 µM in assay [6]. Moreover, the TGI in [7] was 50.3 µM; in assay [8], greater than 100 µM; in assay [9], 50.3 µM; in assay [10], greater than 100 µM; in assay [19], 72.4 µM; in assay [12], 73.3 µM. Besides, the TGI in [13] is 50.8 µM; in assay [14], greater than 100 µM; in [15], 50.9 µM; in assay [16], 86.4 µM; in assay [17] it was greater than 100 µM.

With `C[C@]12CC[C@@H]3c4ccc(O)cc4CC[C@H]3[C@@H]1CC[C@@H]2OC(=O)CCc1ccccc1`, the TGI turned out to be 42 µM in assay [1]; 36.6 µM in assay [18]; 37.8 µM in assay [2]; 43.9 µM in assay [3]; 51 µM in assay [4]; 67.5 µM in assay [5]. The TGI was 37.7 µM in assay [6]; 43.9 µM in [7]; 52.9 µM in assay [8]; 45.1 µM in assay [9]; 52.9 µM in assay [10]; 38.1 µM in assay [11]. The TGI amounted to 39.1 µM in assay [12]; 42.6 µM in assay [13]; 34.6 µM in assay [14]; 40.3 µM in assay [15]; 33.4 µM in [16]; 33 µM in assay [17].

In the case of `CO/N=C\c1cc(O)c(O)c(/C=N/OC)c1`, the TGI in assay [1], in assay [18], in [2], in [3], in [4] and in [5] was greater than 100 µM each time. Further, the TGI in assay [6] was 94.8 µM; in assay [7], 99.3 µM; in [8] it was greater than 100 µM; in assay [9], greater than 100 µM; in assay [10] it was greater than 100 µM; in [11], greater than 100 µM. In addition, the TGI in assay [19] was greater than 100 µM; in [12], greater than 100 µM; in assay [13], greater than 100 µM; in [14], 99.4 µM; in assay [15], greater than 100 µM; in assay [16], greater than 100 µM. The molecule also gave a TGI in assay [17] greater than 100 µM.

As for `O=C1C=CC(=O)c2c(O)c(Br)c(Br)c(O)c21`, the TGI in [1] amounted to 36.9 µM; in assay [18], 35.2 µM; in [2], 3.79 µM; in [3], 29.7 µM; in assay [4], 25.7 µM; in [5], 3.92 µM. The TGI in assay [6] was determined as 5.48 µM; in assay [7] it was 2.21 µM; in [8], 5.67 µM; in assay [9], 8.19 µM; in [10] it was 41.5 µM; in [11], 35.5 µM. The TGI is 0.289 µM in assay [19]; 9.08 µM in assay [12]; 34.1 µM in assay [13]; 13.3 µM in assay [14]; 0.549 µM in assay [15]; 7.43 µM in [16]. The TGI in assay [17] was 4.83 µM.

Regarding `CCN(CC)c1ccc2nc3ccc(N=Nc4c(O)ccc5ccccc45)cc3[n+](-c3ccccc3)c2c1`, the TGI in assay [1], in assay [2], in assay [3], in assay [4], in assay [5] and in [7] was greater than 100 µM each time. In addition, the TGI in assay [8], in assay [9], in assay [10], in [11], in [19] and in assay [12] was greater than 100 µM in each case. The TGI in assay [14], in assay [15], in assay [16] and in [17] was greater than 100 µM throughout.
